A word on the Papp: it is the rate of passage across a membrane or cell layer, normalised by area and donor concentration. A high value points to ready permeation. Usually efflux ratio stands for a quotient of directional permeabilities that is used to spot active efflux.

A short description of data set [1]: MDR1 LLC-PK1 and BCRP MDCKII Permeability Assay: permeability coefficient (Papp). The conditions noted are these: MDCK, test article 1 μM, 37° C. The format is in vitro ADME. The gist of the method: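 Bidirectional (A to B, B to A) transport of test article (1 μM, 1% organic) across MDR1-transfected LLC-PK1 or BCRP-transfected MDCKII (canine P-gp knockout) monolayers, 2 h at 37° C., 5% CO2, in triplicate. Lucifer yellow monitored monolayer integrity. Concentrations measured by LC-MS/MS against labetalol internal standard.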

The target in data set [2] is T1, P-gp (MDR1) (Homo sapiens, UniProt P08183).
T1 construct: expressed in transfected cells; host or cells: LLC-PK1 (porcine kidney) cells transfected with MDR1
T1 sequence (P08183 whole entry): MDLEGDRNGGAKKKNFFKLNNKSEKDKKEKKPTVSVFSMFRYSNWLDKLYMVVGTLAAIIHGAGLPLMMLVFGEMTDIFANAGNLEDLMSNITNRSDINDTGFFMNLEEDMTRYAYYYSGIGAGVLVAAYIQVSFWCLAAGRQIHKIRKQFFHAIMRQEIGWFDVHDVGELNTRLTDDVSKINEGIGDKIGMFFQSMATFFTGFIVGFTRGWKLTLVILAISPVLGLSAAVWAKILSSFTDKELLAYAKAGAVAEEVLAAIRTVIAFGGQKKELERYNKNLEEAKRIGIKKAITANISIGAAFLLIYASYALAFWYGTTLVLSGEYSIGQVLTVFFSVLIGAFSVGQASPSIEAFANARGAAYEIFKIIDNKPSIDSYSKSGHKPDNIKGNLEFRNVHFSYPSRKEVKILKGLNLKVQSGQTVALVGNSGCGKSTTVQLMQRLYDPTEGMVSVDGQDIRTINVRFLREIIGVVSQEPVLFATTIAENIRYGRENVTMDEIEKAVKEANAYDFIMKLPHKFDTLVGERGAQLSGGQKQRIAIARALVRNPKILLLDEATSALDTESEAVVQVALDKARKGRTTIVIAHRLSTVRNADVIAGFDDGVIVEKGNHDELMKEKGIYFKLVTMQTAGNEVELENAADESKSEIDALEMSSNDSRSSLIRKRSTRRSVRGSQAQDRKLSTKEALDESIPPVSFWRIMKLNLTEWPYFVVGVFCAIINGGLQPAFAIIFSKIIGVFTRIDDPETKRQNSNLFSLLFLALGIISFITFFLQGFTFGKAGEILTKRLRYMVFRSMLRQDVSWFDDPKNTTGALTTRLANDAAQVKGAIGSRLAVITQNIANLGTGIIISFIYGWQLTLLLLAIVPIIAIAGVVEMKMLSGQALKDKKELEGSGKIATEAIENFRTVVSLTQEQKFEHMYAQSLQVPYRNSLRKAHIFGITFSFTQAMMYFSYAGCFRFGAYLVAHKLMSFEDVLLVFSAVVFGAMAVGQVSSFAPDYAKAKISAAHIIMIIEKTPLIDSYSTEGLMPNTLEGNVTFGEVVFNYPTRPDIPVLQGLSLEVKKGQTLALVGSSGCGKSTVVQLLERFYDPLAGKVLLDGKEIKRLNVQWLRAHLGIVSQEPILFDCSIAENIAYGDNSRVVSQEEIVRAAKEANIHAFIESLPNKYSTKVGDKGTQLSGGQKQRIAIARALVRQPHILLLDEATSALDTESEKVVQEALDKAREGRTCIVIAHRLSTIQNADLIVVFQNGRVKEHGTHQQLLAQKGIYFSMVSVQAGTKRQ
In words: Efflux ratio in MDR1 transfected LLC-PK1 cells. It is filed as in vitro ADME. The conditions noted are these: pig, Papp(B−A)/Papp(A−B). The gist of the method:
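LLC-PK1 cells transfected with MDR1, test article at 1 μM (1% organic), transport measured A→B and B→A over 2 h at 37° C. Monolayer integrity checked with lucifer yellow, compound quantified by LC-MS/MS. Efflux ratio = Papp(B−A)/Papp(A−B).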

The nature of data set [3]: PK (Free Brain-to-Free Plasma Ratio) (Mouse). It is filed as in vivo. The conditions noted are these: brain and plasma, male CD-1 mice, oral gavage 10 mg/kg, sampling 2, 4, 8, 12 and 24 hours, (B/P)*(Bfu/Pfu). The protocol: The ability of representative compounds to penetrate the BBB in mice was determined by evaluating the unbound brain-to-unbound plasma (also referred to as free brain-to-free plasma) concentration ratio in male CD-1 mice.
Brain compound levels were generated from oral mouse PK dosing with typical sampling times of 2, 4, 8, 12 and 24 hours post oral gavage dosing at 10 mg/kg. Brain samples were stored at −20±5° C. prior to analysis. Concentrations of test compound in mouse brain homogenate were determined by liquid chromatography tandem mass spectrometry (LC-MS/MS) following protein precipitation with acetonitrile. A 12-point calibration curve, ranging from 0.5 to 10,000 ng/mL, was prepared in duplicate. A solution of 400 μg/mL of test compound in dimethyl sulfoxide (DMSO) was serially diluted (3-fold) in 100% DMSO, and then 2.5 μL of each standard solution was added to 100 μL of naïve male CD-1 mice brain homogenate. To mimic the extraction in the standard curve, 2.5 μL of DMSO was added to all test samples. Both calibration and test brain homogenate samples were spiked with 10 μL of an IS (1 μg/mL of a structural analog). Brain homogenate was generated by adding 0.75 mL of 4:1 water:MeOH to each brain sample followed by homogenization for 1 minute with bead beater tubes a 6 m/s using an MP Fast Prep-24®. Proteins were precipitated from 100 μL of brain homogenate sample by the addition of 300 μL of acetonitrile. Samples were vortex-mixed for 5 minutes and spun in an Allegra X-12R centrifuge (Beckman Coulter, Fullerton, CA; SX4750A rotor) for 15 min at about 1,500×g at 4° C. A 100 μL aliquot of each supernatant was transferred via a 550 μL Personal Pipettor (Apricot Designs, Monrovia, CA) to 96-well plates and diluted 1:1 with HPLC grade water. The resulting plates were sealed with aluminum for LC-MS/MS analysis.
Brain-to-plasma ratios were calculated using the concentration of compound measured in the brain divided by the concentration of compound measured in the plasma. Brain-to-plasma ratios were always generated from a single animal and time point. Free brain-to-free plasma ratios were calculated by multiplying the brain-to-plasma ratio by the in vitro brain homogenate free fraction divided by the in vitro plasma free fraction using the following equation: (B/P)*(Bfu/Pfu).

Consider `CSc1ccc(Nc2c3c(cc(=O)n2C)CCN(OCCO)C3=O)c(F)c1` [Example 6, 8-((2-fluoro-4-(methylthio)phenyl)amino)-2-(2-hydroxyethoxy)-7-methyl-3,4-dihydro-2,7-naphthyridine-1,6(2H,7H)-dione], for which, in data set [1], the Papp at 2 h, 1 μM came to 32.1 ×10⁻⁶ cm/s. The efflux ratio at 2 h, 1 μM in data set [2] was 3.4. Moreover, the Kp,uu (unbound brain-to-unbound plasma ratio) in data set [3] was in the range of 0.88 to 1.26.
For the compound `Cn1c(Nc2ccc(Br)cc2F)c2c(cc1=O)CCN(OCCO)C2=O` [Example 7, 8-((4-bromo-2-fluorophenyl)amino)-2-(2-hydroxyethoxy)-7-methyl-3,4-dihydro-2,7-naphthyridine-1,6(2H,7H)-dione], the Papp at 2 h, 1 μM in data set [1] came to 34.5 ×10⁻⁶ cm/s. The efflux ratio at 2 h, 1 μM in data set [2] was 5.4. Further, the Kp,uu (unbound brain-to-unbound plasma ratio) in data set [3] lay within 0.62 to 1.06.
The corresponding values for `Cn1c(Nc2ccc(I)cc2F)c2c(cc1=O)CCN(OCCO)C2=O` [Example 8, 8-((2-fluoro-4-iodophenol)amino)-2-(2-hydroxyethoxy)-7-methyl-3,4-dihydro-2,7-naphthyridine-1,6(2H,7H)-dione] are 34.2 ×10⁻⁶ cm/s, 7.1 and 1.01 to 16.1.
The corresponding values for `CCc1ccc(Nc2c3c(cc(=O)n2C)CCN(OCCO)C3=O)c(F)c1` [Example 14, 8-((4-ethyl-2-fluorophenyl)amino)-2-(2-hydroxyethoxy)-7-methyl-3,4-dihydro-2,7-naphthyridine-1,6(2H,7H)-dione] are 31.1 ×10⁻⁶ cm/s, 2.7 and 0.57 to 1.58.
The corresponding values for `Cn1c(Nc2ccc(OC(F)F)cc2F)c2c(cc1=O)CCN(OCCO)C2=O` [Example 22, 8-((4-(difluoromethoxy)-2-fluorophenyl)amino)-2-(2-hydroxyethoxy)-7-methyl-3,4-dihydro-2,7-naphthyridine-1,6(2H,7H)-dione] are 24.6 ×10⁻⁶ cm/s, 6.2 and 0.33 to 2.92.
In data set [1], `Cc1c2c(c(Nc3ccc(Br)cc3F)n(C)c1=O)C(=O)N(OCCO)CC2` [Example 36, 8-((4-bromo-2-fluorophenyl)amino)-2-(2-hydroxyethoxy)-5,7-dimethyl-3,4-dihydro-2,7-naphthyridine-1,6(2H,7H)-dione] registered a Papp at 2 h, 1 μM of 31.1 ×10⁻⁶ cm/s. The efflux ratio at 2 h, 1 μM in data set [2] was 2.9. For the same compound, the Kp,uu (unbound brain-to-unbound plasma ratio) in data set [3] fell in the range of 0.83 to 2.09.

The record behind these values is patent US11802127B2, “3,4-dihydro-2,7-naphthyridine-1,6(2H,7H)-diones as MEK inhibitors” (Pfizer Inc., priority 2021, dated 2023).
